# Data published in patent US20230123334A1, “AMINO LIPID COMPOUND, PREPARATION METHOD THEREFOR, AND APPLICATION THEREOF” (SHENZHEN SHENXIN BIOTECHNOLOGY CO., LTD., priority 2020, published 2023).
# Tested on: HEK293 cells
# Assay: Preliminary screening as mRNA vectors, EGFP mRNA transfection of HEK293 cells
# Assay type: cell-based
# Settings: EGFP mRNA 50 ng per well, 96-well plates; percentage of GFP fluorescent cells relative to total number of cells (Hoechst)
# Outline: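 Each well of HEK293 cells received 50 ng of EGFP mRNA. Efficiency was expressed as percent GFP-expressing cells over Hoechst-defined total cell number.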
row,Structure (SMILES),Absolute mRNA transfection efficiency in HEK293 cells [%]
1,CCCCCCCCCCCCCCCCCCSc1nc(NCCCCCC)nc(NCCN2CCOCC2)n1 [Compound D2S18N6],0.4
2,CCCCCCCCCCCCCCCCCCSc1nc(NCCN2CCN(C)CC2)nc(N(CCCCCCCCCCCC)CCCCCCCCCCCC)n1 [D5S18^2N12],0.0
3,CCCCCCSc1nc(NCCCN2CCOCC2)nc(SCCCCCC)n1 [Compound D8S6S6],0.0
4,CCCCCCCCSc1nc(NCCCN2CCN(C)CC2)nc(SCCCCCCC)n1 [Compound D9S7S8],43.7
5,CCCCCCCCCCSc1nc(NCCCN2CCN(C)CC2)nc(SCCCCCC)n1 [Compound D9S6S10],23.7
6,CCCCCCCCCCCCN(CCCCCCCCCCCC)c1nc(NCCCN(C)C)nc(SCCCCCCCC)n1 [D6S8^2N12],1.5
7,CCCCCCCCCCCCCCCCCCSc1nc(NCCCCCCCCCCCCC)nc(NCCN(CC)CC)n1 [Compound D7S18N13],1.5
8,CCCCCCCCCCCCCCSc1nc(NCCCCCCCCCCCC)nc(NCCN2CCN(C)CC2)n1 [Compound D5S14N12],11.3
9,CCCCCCCCCCCCCCCNc1nc(NCCN2CCCC2)nc(SCCCCCCCCCCCCCCC)n1 [Compound D3S15N15],2.6
10,CCCCCCCCCNc1nc(NCCN2CCCC2)nc(SCCCCCC)n1 [Compound D3S6N9],0.3
11,CCCCCCCCCCCCCNc1nc(NCCN2CCCC2)nc(SCCCCCCCCCCCC)n1 [Compound D3S12N13],0.3
12,CCCCCCCCCCCCCCCSc1nc(NCCCCCCCCCCCCC)nc(NCCCN2CCN(C)CC2)n1 [Compound D9S15N13],2.0
13,CCCCCCCCCCCCN(CCCCCCCCCCCC)c1nc(NCCN2CCN(C)CC2)nc(SCCCCCCCCC)n1 [D5S9^2N12],0.4
14,CCCCCCCCCCCCN(CCCCCCCCCCCC)c1nc(NCC2CCN(C)CC2)nc(SCCCCCC)n1 [D10S6^2N12],0.1
15,CCCCCCCCCCCCNc1nc(NCC2CCN(C)CC2)nc(SCCCCCCCC)n1 [Compound D10S8N12],73.1
16,CCCCCCNc1nc(NCCN2CCOCC2)nc(SCCCCCC)n1 [Compound D2S6N6],0.4
17,CCCCCCCCCCCSc1nc(NCCCCCCC)nc(NCC2CCN(C)CC2)n1 [Compound D10S11N7],18.2
18,CCCCCCCCCCSc1nc(NCC2CCN(C)CC2)nc(SCCCCCCCC)n1 [Compound D10S8S10],74.2
19,CCCCCCCCCCCCCCCCCCNc1nc(NCCCN2CCOCC2)nc(SCCCCCCCCCCCCCCCCCC)n1 [Compound D8S18N18],0.0
20,CCCCCCCSc1nc(NCCCCCC)nc(NCCCN2CCOCC2)n1 [Compound D8S7N6],1.8
21,CCCCCCCCCCCCCCCCSc1nc(NCCCCCCCCCCC)nc(NCCN2CCCCC2)n1 [Compound D4S16N11],0.5
22,CCCCCCCCCSc1nc(NCCCCCCC)nc(NCCCN2CCN(C)CC2)n1 [Compound D9S9N7],2.8
23,CCCCCCCCCCCCCCCCCCNc1nc(NCCN2CCOCC2)nc(SCCCCCCCCCC)n1 [Compound D2S10N18],0.0

row,Structure (SMILES),Absolute mRNA transfection efficiency in HEK293 cells [%]
1,CCCCCCCCCCCCCCCSc1nc(NCCCCCCCCC)nc(NCCN2CCCC2)n1 [Compound D3S15N9],15.4
2,CCCCCCCCCCCCCCCNc1nc(NCCN2CCN(C)CC2)nc(SCCCCCCCCC)n1 [Compound D5S9N15],32.9
3,CCCCCCCCCCCCCCCCCCNc1nc(NCCN(C)C)nc(SCCCCCCCC)n1 [Compound D1S8N18],19.3
4,CCCCCCCCCCCCCNc1nc(NCCN2CCCC2)nc(SCCCCCCC)n1 [Compound D3S7N13],19.1
5,CCCCCCCCCCCCSc1nc(NCCN2CCCCC2)nc(SCCCCCC)n1 [Compound D4S6S12],0.2
6,CCCCCCCCCCCCCNc1nc(NCCN(CC)CC)nc(SCCCCCCCCCCC)n1 [Compound D7S11N13],5.8
7,CCCCCCCCCCCCSc1nc(NCCCN2CCN(C)CC2)nc(SCCCCCCCC)n1 [Compound D9S8S12],23.6
8,CCCCCCCCCCCCN(CCCCCCCCCCCC)c1nc(NCCN2CCCCC2)nc(SCCCCCCCCCC)n1 [D4S10^2N12],0.1
9,CCCCCCCCCCCCNc1nc(NCCN(C)C)nc(SCCCCCCCCCC)n1 [Compound D1S10N12],2.4
10,CCCCCCCCCCCCCCCSc1nc(NCCCCCCC)nc(NCCCN2CCN(C)CC2)n1 [Compound D9S15N7],15.9
11,CCCCCCCCCCCCSc1nc(NCCCCCCC)nc(NCCN2CCCCC2)n1 [Compound D4S12N7],0.5
12,CCCCCCCCCCCCCCCSc1nc(NCCCN2CCN(C)CC2)nc(SCCCCCCC)n1 [Compound D9S7S15],9.6
13,CCCCCCCCCCCCCCCSc1nc(NCCCN(C)C)nc(N(CCCCCCCCCCCC)CCCCCCCCCCCC)n1 [D6S15^2N12],2.9
14,CCCCCCCCNc1nc(NCCCN2CCN(C)CC2)nc(SCCCCCCC)n1 [Compound D9S7N8],1.7
15,CCCCCCCCCCCCCCCCNc1nc(NCCN2CCCC2)nc(SCCCCCCCCCC)n1 [Compound D3S10N16],56.7
16,CCCCCCCCCCCNc1nc(NCCN2CCOCC2)nc(SCCCCCCCCCC)n1 [Compound D2S10N11],0.2
17,CCCCCCCCCCCCSc1nc(NCCCN2CCOCC2)nc(SCCCCCCC)n1 [Compound D8S7S12],20.7
18,CCCCCCCCCCSc1nc(NCCCCCCC)nc(NCCN2CCCCC2)n1 [Compound D4S10N7],0.1
19,CCCCCCCCCCCCCCCNc1nc(NCCN2CCCC2)nc(SCCCCCCC)n1 [Compound D3S7N15],33.7
20,CCCCCCCCCCCCSc1nc(NCCCCCCC)nc(NCCCN2CCN(C)CC2)n1 [Compound D9S12N7],0.6
21,CCCCCCCCCCCCCCCCCCNc1nc(NCC2CCN(C)CC2)nc(SCCCCCCC)n1 [Compound D10S7N18],45.8
22,CCCCCCCCCCCCNc1nc(NCCN2CCCCC2)nc(SCCCCCCCC)n1 [Compound D4S8N12],3.5
23,CCCCCCCCCCCCCCCCNc1nc(NCCN2CCN(C)CC2)nc(SCCCCCCCCCCCCCCC)n1 [Compound D5S15N16],1.4

row,Structure (SMILES),Absolute mRNA transfection efficiency in HEK293 cells [%]
1,CCCCCCCCCCCCCCCCCCNc1nc(NCCN2CCOCC2)nc(SCCCCCCCCCCCCCCCCCC)n1 [Compound D2S18N18],0.0
2,CCCCCCCCCCCCCCCCCCNc1nc(NCCN(CC)CC)nc(SCCCCCCCCCCCC)n1 [Compound D7S12N18],1.1
3,CCCCCCCCCCCNc1nc(NCCN2CCCC2)nc(SCCCCCC)n1 [Compound D3S6N11],0.7
4,CCCCCCCCCCCCCCCNc1nc(NCC2CCN(C)CC2)nc(SCCCCCCCCCCCC)n1 [Compound D10S12N15],4.1
5,CCCCCCCCCCCCCCCSc1nc(NCCCN2CCOCC2)nc(N(CCCCCCCCCCCC)CCCCCCCCCCCC)n1 [D8S15^2N12],2.9
6,CCCCCCCCCCCCCCSc1nc(NCCN2CCOCC2)nc(N(CCCCCCCCCCCC)CCCCCCCCCCCC)n1 [D2S14^2N12],0.0
7,CCCCCCCCSc1nc(NCCN(C)C)nc(SCCCCCCC)n1 [Compound D1S7S8],16.7
8,CCCCCCCCCCCCCCSc1nc(NCCCCCC)nc(NCCN2CCOCC2)n1 [Compound D2S14N6],8.8
9,CCCCCCCCCCCCSc1nc(NCCN(CC)CC)nc(SCCCCCC)n1 [Compound D7S6S12],8.1
10,CCCCCCCCSc1nc(NCCCCCCC)nc(NCCN(CC)CC)n1 [Compound D7S8N7],0.7
11,CCCCCCCCCCCCCCSc1nc(NCCCCCC)nc(NCC2CCN(C)CC2)n1 [Compound D10S14N6],41.9
12,CCCCCCCCCCSc1nc(NCCCCCCCC)nc(NCCCN2CCOCC2)n1 [Compound D8S10N8],0.4
13,CCCCCCNc1nc(NCCN(CC)CC)nc(SCCCCCC)n1 [Compound D7S6N6],1.2
14,CCCCCCCCCCCCCNc1nc(NCCCN(C)C)nc(SCCCCCCCCCCCC)n1 [Compound D6S12N13],5.5
15,CCCCCCCCCCCCCCCCCCNc1nc(NCCN(C)C)nc(SCCCCCCCCCCCCCCCCCC)n1 [Compound D1S18N18],0.0
16,CCCCCCCCCCCCCCCCNc1nc(NCCN2CCOCC2)nc(SCCCCCCCCCC)n1 [Compound D2S10N16],0.6
17,CCCCCCCCCNc1nc(NCCN2CCCCC2)nc(SCCCCCC)n1 [Compound D4S6N9],1.1
18,CCCCCCCCCCCCCCCCCCSc1nc(NCCCCCCCCCCCCC)nc(NCCCN2CCOCC2)n1 [Compound D8S18N13],0.0
19,CCCCCCCCCCCCSc1nc(NCCCCCCC)nc(NCCCN2CCOCC2)n1 [Compound D8S12N7],1.5
20,CCCCCCCCCSc1nc(NCCCN2CCN(C)CC2)nc(SCCCCCCC)n1 [Compound D9S7S9],35.3
21,CCCCCCNc1nc(NCCCN2CCOCC2)nc(SCCCCCC)n1 [Compound D8S6N6],0.0
